From patent US8575156B2, “Cyclic inhibitors of 11β-hydroxysteroid dehydrogenase 1” (Vitae Pharmaceuticals, Inc., priority 2007, dated 2013)

Biological target: 11β-HSD1 (Homo sapiens, UniProt P28845)
Assay: biochemical
Conditions: for IC50: IC50 Range, Biological Test Example 1, microsomes from CHO cells overexpressing human 11β-HSD1; for inhibition at 0.1 µM: read-out: Average % inhibition at 100 nM, Biological Test Example 1, 100 nM

Sequence of 11β-HSD1 (P28845 whole entry): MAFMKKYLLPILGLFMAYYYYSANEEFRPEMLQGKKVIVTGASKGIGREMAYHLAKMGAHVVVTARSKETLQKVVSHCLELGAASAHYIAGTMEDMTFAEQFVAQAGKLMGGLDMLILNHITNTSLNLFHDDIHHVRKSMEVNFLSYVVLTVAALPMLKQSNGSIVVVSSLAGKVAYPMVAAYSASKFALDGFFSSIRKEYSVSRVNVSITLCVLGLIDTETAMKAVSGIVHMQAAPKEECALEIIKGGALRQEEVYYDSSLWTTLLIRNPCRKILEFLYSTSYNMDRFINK

IC50 [nM]	inhibition at 0.1 µM [%]	inhibition at 0.1111 µM (read-out: Average % inhibition at 111.1 nM, Biological Test Example 1, 111.1 nM) [%]	Compound
< 100	94.7	–	C[C@@H](c1ccc(Br)cc1)N1CC[C@](CCN2CCOCC2)(c2ccccc2)OC1=O [EXAMPLE 397, (R)-3-((S)-1-(4-bromophenyl)ethyl)-6-(2-morpholinoethyl)-6-phenyl-1,3-oxazinan-2-one]
< 100	97.7	–	CC[C@@H](c1ccc(Br)cc1)N1CC[C@](CCC(N)=O)(c2ccccc2)OC1=O [EXAMPLE 398, 3-((R)-3-((S)-1-(4-bromophenyl)propyl)-2-oxo-6-phenyl-1,3-oxazinan-6-yl)propanamide]
< 100	97.9	–	C[C@@H](c1ccc(C(F)(F)F)cc1)N1CC[C@](CCO)(c2ccccc2)OC1=O [EXAMPLE 399, (S)-6-(2-hydroxyethyl)-6-phenyl-3-((S)-1-(4-(trifluoromethyl)phenyl)ethyl)-1,3-oxazinan-2-one]
< 100	96.8	–	C[C@@H](c1ccc(C(F)(F)F)cc1)N1CC[C@](CC(C)(C)O)(c2ccccc2)OC1=O [EXAMPLE 400, (S)-6-(2-hydroxy-2-methylpropyl)-6-phenyl-3-((S)-1-(4-(trifluoromethyl)phenyl)ethyl)-1,3-oxazinan-2-one]
< 100	98.6	–	C[C@@H](c1ccc(Cl)cc1)N1CC[C@](CCO)(c2ccccc2)OC1=O [EXAMPLE 401, (S)-3-((S)-1-(4-chlorophenyl)ethyl)-6-(2-hydroxyethyl)-6-phenyl-1,3-oxazinan-2-one]
< 100	96.8	–	C[C@@H](c1ccc(Cl)cc1)N1CC[C@](CC(C)(C)O)(c2ccccc2)OC1=O [EXAMPLE 402, (S)-3-((S)-1-(4-chlorophenyl)ethyl)-6-(2-hydroxy-2-methylpropyl)-6-phenyl-1,3-oxazinan-2-one]
< 100	99.5	–	C[C@@H](c1ccc(Cl)cc1)N1CC[C@](CCCO)(c2ccccc2)OC1=O [EXAMPLE 403, (R)-3-((S)-1-(4-chlorophenyl)ethyl)-6-(3-hydroxypropyl)-6-phenyl-1,3-oxazinan-2-one]
< 100	91.2	–	C[C@@H](c1ccc(Cl)cc1)N1CC[C@](CCCNS(C)(=O)=O)(c2ccccc2)OC1=O [EXAMPLE 404, N-(3-((R)-3-((S)-1-(4-chlorophenyl)ethyl)-2-oxo-6-phenyl-1,3-oxazinan-6-yl)propyl)methanesulfonamide]
< 100	86.4	–	C[C@@H](c1ccc(F)cc1)N1CC[C@](CCO)(c2ccc(F)cc2)OC1=O [EXAMPLE 406, (S)-6-(4-fluorophenyl)-3-((S)-1-(4-fluorophenyl)ethyl)-6-(2-hydroxyethyl)-1,3-oxazinan-2-one]
< 100	94.7	–	C[C@@H](c1ccc(F)cc1)N1CC[C@](CC(C)(C)O)(c2ccc(F)cc2)OC1=O [EXAMPLE 407, (S)-6-(4-fluorophenyl)-3-((S)-1-(4-fluorophenyl)ethyl)-6-(2-hydroxy-2-methylpropyl)-1,3-oxazinan-2-one]
< 100	90.2	–	CC(O)C[C@]1(c2ccc(F)cc2)CCN([C@@H](C)c2ccc(F)cc2)C(=O)O1 (stereo partly drawn) [EXAMPLE 408, (6S)-6-(4-fluorophenyl)-3-((S)-1-(4-fluorophenyl)ethyl)-6-(2-hydroxypropyl)-1,3-oxazinan-2-one]
< 100	91.6	–	C[C@@H](c1ccc(F)cc1)N1CC[C@](CCCNS(C)(=O)=O)(c2ccc(F)cc2)OC1=O [EXAMPLE 409, N-(3-((R)-6-(4-fluorophenyl)-3-((S)-1-(4-fluorophenyl)ethyl)-2-oxo-1,3-oxazinan-6-yl)propyl)methanesulfonamide]
< 100	52	–	C[C@@H](c1ccc(F)cc1)N1CC[C@](CCC(C)(C)O)(c2ccc(F)cc2)OC1=O [EXAMPLE 410, (R)-6-(4-fluorophenyl)-3-((S)-1-(4-fluorophenyl)ethyl)-6-(3-hydroxy-3-methylbutyl)-1,3-oxazinan-2-one]
< 100	94.7	–	C[C@@H](c1ccc(F)cc1)N1CC[C@](CCO)(c2ccccc2)OC1=O [EXAMPLE 412, (S)-3-((S)-1-(4-fluorophenyl)ethyl)-6-(2-hydroxyethyl)-6-phenyl-1,3-oxazinan-2-one]
< 100	95.3	–	C[C@@H](c1ccc(F)cc1)N1CC[C@](CC(C)(C)O)(c2ccccc2)OC1=O [EXAMPLE 413, (S)-3-((S)-1-(4-fluorophenyl)ethyl)-6-(2-hydroxy-2-methylpropyl)-6-phenyl-1,3-oxazinan-2-one]
< 100	94.4	–	C[C@@H](c1ccc(F)cc1)N1CC[C@](CCCO)(c2ccccc2)OC1=O [EXAMPLE 414, (R)-3-((S)-1-(4-fluorophenyl)ethyl)-6-(3-hydroxypropyl)-6-phenyl-1,3-oxazinan-2-one]
< 100	87.6	–	C[C@@H](c1ccc(F)cc1)N1CC[C@](CCC(N)=O)(c2ccccc2)OC1=O [EXAMPLE 415, 3-((R)-3-((S)-1-(4-fluorophenyl)ethyl)-2-oxo-6-phenyl-1,3-oxazinan-6-yl)propanamide]

IC50 [nM]	inhibition at 0.1 µM [%]	inhibition at 0.1111 µM (read-out: Average % inhibition at 111.1 nM, Biological Test Example 1, 111.1 nM) [%]	Compound
< 100	55.1	–	C[C@@H](c1ccc(F)cc1)N1CC[C@](CCC(C)(C)O)(c2ccccc2)OC1=O [EXAMPLE 416, (R)-3-((S)-1-(4-fluorophenyl)ethyl)-6-(3-hydroxy-3-methylbutyl)-6-phenyl-1,3-oxazinan-2-one]
< 100	97.1	–	Cc1ccc([C@H](C)N2CC[C@](CC(C)(C)O)(c3ccc(F)cc3)OC2=O)cc1 [EXAMPLE 417, (S)-6-(4-fluorophenyl)-6-(2-hydroxy-2-methylpropyl)-3-((S)-1-p-tolylethyl)-1,3-oxazinan-2-one]
< 100	99.2	–	Cc1ccc([C@H](C)N2CC[C@](CCCO)(c3ccc(F)cc3)OC2=O)cc1 [EXAMPLE 418, (R)-6-(4-fluorophenyl)-6-(3-hydroxypropyl)-3-((S)-1-p-tolylethyl)-1,3-oxazinan-2-one]
< 100	97.3	–	Cc1ccc([C@H](C)N2CC[C@](CCCNS(C)(=O)=O)(c3ccc(F)cc3)OC2=O)cc1 [EXAMPLE 420, N-(3-((R)-6-(4-fluorophenyl)-2-oxo-3-((S)-1-p-tolylethyl)-1,3-oxazinan-6-yl)propyl)methanesulfonamide]
< 100	96.1	–	Cc1ccc([C@H](C)N2CC[C@](CCO)(c3ccc(F)cc3)OC2=O)cc1 [EXAMPLE 421, (S)-6-(4-fluorophenyl)-6-(2-hydroxyethyl)-3-((S)-1-p-tolylethyl)-1,3-oxazinan-2-one]
< 100	100	–	Cc1ccc([C@H](C)N2CC[C@](CC(C)(C)O)(c3ccccc3)OC2=O)cc1 [EXAMPLE 422, (S)-6-(2-hydroxy-2-methylpropyl)-6-phenyl-3-((S)-1-p-tolylethyl)-1,3-oxazinan-2-one]
< 100	97.6	–	Cc1ccc([C@H](C)N2CC[C@](CCCO)(c3ccccc3)OC2=O)cc1 [EXAMPLE 423, (R)-6-(3-hydroxypropyl)-6-phenyl-3-((S)-1-p-tolylethyl)-1,3-oxazinan-2-one]
< 100	97	–	Cc1ccc([C@H](C)N2CC[C@](CCC(N)=O)(c3ccccc3)OC2=O)cc1 [EXAMPLE 424, 3-((R)-2-oxo-6-phenyl-3-((S)-1-p-tolylethyl)-1,3-oxazinan-6-yl)propanamide]
< 100	96.2	–	COc1ccc([C@H](C)N2CC[C@](CC(C)(C)O)(c3ccc(F)cc3)OC2=O)cc1 [EXAMPLE 425, (S)-6-(4-fluorophenyl)-6-(2-hydroxy-2-methylpropyl)-3-((S)-1-(4-methoxyphenyl)ethyl)-1,3-oxazinan-2-one]
< 100	82.5	–	COc1ccc([C@H](C)N2CC[C@](CCC(C)(C)O)(c3ccc(F)cc3)OC2=O)cc1 [EXAMPLE 426, (R)-6-(4-fluorophenyl)-6-(3-hydroxy-3-methylbutyl)-3-((S)-1-(4-methoxyphenyl)ethyl)-1,3-oxazinan-2-one]
< 100	97.8	–	COc1ccc([C@H](C)N2CC[C@](CC(C)(C)O)(c3ccccc3)OC2=O)cc1 [EXAMPLE 427, (S)-6-(2-hydroxy-2-methylpropyl)-3-((S)-1-(4-methoxyphenyl)ethyl)-6-phenyl-1,3-oxazinan-2-one]
< 100	82	–	COc1ccc([C@H](C)N2CC[C@](CCC(C)(C)O)(c3ccccc3)OC2=O)cc1 [EXAMPLE 428, (R)-6-(3-hydroxy-3-methylbutyl)-3-((S)-1-(4-methoxyphenyl)ethyl)-6-phenyl-1,3-oxazinan-2-one]
–	–	99.4	Cc1cc(-c2ccc([C@H](C)N3CC[C@](CC(C)(C)O)(c4ccc(F)cc4)OC3=O)cc2)ccn1 [EXAMPLE 449, (S)-6-(4-fluorophenyl)-6-(2-hydroxy-2-methylpropyl)-3-((S)-1-(4-(2-methylpyridin-4-yl)phenyl)ethyl)-1,3-oxazinan-2-one]
< 100	72.3	–	C[C@@H](c1ccc(-c2ccc(F)cc2)cc1)N1CC[C@](CCN2CCC2)(c2ccc(F)cc2)OC1=O [EXAMPLE 462, (R)-6-(2-(azetidin-1-yl)ethyl)-3-((S)-1-(4′-fluorobiphenyl-4-yl)ethyl)-6-(4-fluorophenyl)-1,3-oxazinan-2-one]
< 100	81.3	–	C[C@@H](c1ccc(-c2ccc(F)cc2)cc1)N1CC[C@](CCNCCF)(c2ccc(F)cc2)OC1=O [EXAMPLE 463, (R)-3-((S)-1-(4′-fluorobiphenyl-4-yl)ethyl)-6-(2-(2-fluoroethylamino)ethyl)-6-(4-fluorophenyl)-1,3-oxazinan-2-one]
< 100	80.2	–	C[C@@H](c1ccc(-c2ccc(F)cc2)cc1)N1CC[C@](CCN2CCCC2)(c2ccc(F)cc2)OC1=O [EXAMPLE 464, (R)-3-((S)-1-(4′-fluorobiphenyl-4-yl)ethyl)-6-(4-fluorophenyl)-6-(2-(pyrrolidin-1-yl)ethyl)-1,3-oxazinan-2-one]
